Measurements from PubChem BioAssay (NCI).
“And” between values parts separate entries of the source, which are not always exact repeats. Equal entries are not always repeated.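 Five compound concentrations were applied to cells in 96-well plates for 48 hours; endpoints were derived by simple linear interpolation of the resulting dose-response curve. GI50: concentration for 50% inhibition of growth. TGI: total growth inhibition.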

Assays:
Test in all cases: growth of human tumour cells (NCI), 48 h
[1] = system: 786-0 renal
[2] = system: A498 renal
[3] = system: A549 NSCLC
[4] = system: ACHN renal
[5] = system: CAKI-1 renal
[6] = system: COLO 205 colon
[7] = system: DLD-1 colon
[8] = system: DMS 114 small cell lung
[9] = system: EKVX NSCLC
[10] = system: HCC-2998 colon
[11] = system: HCT-116 colon
[12] = system: HCT-15 colon
[13] = system: HOP-62 NSCLC
[14] = system: HOP-92 NSCLC
[15] = system: HT29 colon
[16] = system: IGROV1 ovarian
[17] = system: KM12 colon
[18] = system: LOX IMVI melanoma
[19] = system: M14 melanoma
[20] = system: M19-MEL melanoma
[21] = system: MALME-3M melanoma
[22] = system: NCI-H226 lung
[23] = system: NCI-H23 lung
[24] = system: NCI-H460 lung
[25] = system: NCI-H522 lung
[26] = system: OVCAR-3 ovarian
[27] = system: OVCAR-4 ovarian
[28] = system: OVCAR-5 ovarian
[29] = system: RPMI-8226 leukemia
[30] = system: RXF 393 renal
[31] = system: SF-268 CNS
[32] = system: SF-295 CNS
[33] = system: SF-539 CNS
[34] = system: SK-MEL-2 melanoma
[35] = system: SK-MEL-28 melanoma
[36] = system: SK-MEL-5 melanoma
[37] = system: SK-OV-3 ovarian
[38] = system: SN12C renal
[39] = system: SNB-19 CNS
[40] = system: SNB-78 CNS
[41] = system: SR leukemia
[42] = system: SW-620 colon
[43] = system: U251 CNS
[44] = system: UACC-257 melanoma
[45] = system: UACC-62 melanoma
[46] = system: UO-31 renal
[47] = system: BT-549 breast
[48] = system: CCRF-CEM leukemia
[49] = system: DU-145 prostate
[50] = system: HL-60(TB) leukemia
[51] = system: HS 578T breast
[52] = system: K-562 leukemia
[53] = system: MCF7 breast
[54] = system: MDA-MB-231 breast
[55] = system: MDA-MB-435
[56] = system: MDA-N
[57] = system: MOLT-4 leukemia
[58] = system: NCI/ADR-RES ovarian
[59] = system: OVCAR-8 ovarian
[60] = system: PC-3 prostate
[61] = system: SNB-75 CNS
[62] = system: T-47D breast
[63] = system: TK-10 renal

**Q.** How did the TGI [1] turn out when Cc1cccc(CC(C)(C)C)c1NC(=O)C(=O)C(C(=O)c1ccc2ccccc2c1)C1OC(=O)c2ccccc21 (stereo unspecified) was run?
**A.** 21.7 µM

**Q.** And the TGI [2]?
**A.** 30.9 µM

**Q.** What about the TGI [3] of the same molecule?
**A.** 40.9 µM

**Q.** What about the TGI [4] of the same molecule?
**A.** 56.2 µM

**Q.** What about the TGI [5] of the same molecule?
**A.** > 100 µM

**Q.** What about the TGI [6] of the same molecule?
**A.** 92 µM

**Q.** What about the TGI [7] of the same molecule?
**A.** 35.1 µM

**Q.** What about the TGI [8] of the same molecule?
**A.** 56.7 µM

**Q.** What about the TGI [9] of the same molecule?
**A.** 82.1 µM

**Q.** What about the TGI [10] of the same molecule?
**A.** 25.2 µM

**Q.** What about the TGI [11] of the same molecule?
**A.** > 100 µM

**Q.** What about the TGI [12] of the same molecule?
**A.** 41.4 µM

**Q.** And the TGI [13]?
**A.** 43.2 µM

**Q.** What about the TGI [14] of the same molecule?
**A.** 8.54 µM

**Q.** And the TGI [15]?
**A.** 51.6 µM

**Q.** What about the TGI [16] of the same molecule?
**A.** 46.8 µM

**Q.** What about the TGI [17] of the same molecule?
**A.** 30.3 µM

**Q.** And the TGI [18]?
**A.** 43.9 µM

**Q.** What about the TGI [19] of the same molecule?
**A.** > 100 µM

**Q.** What about the TGI [20] of the same molecule?
**A.** 64.1 µM

**Q.** And the TGI [21]?
**A.** 27.4 µM

**Q.** And the TGI [22]?
**A.** 7.12 µM

**Q.** What about the TGI [23] of the same molecule?
**A.** 19.2 µM

**Q.** What about the TGI [24] of the same molecule?
**A.** 17 µM

**Q.** What about the TGI [25] of the same molecule?
**A.** 26.7 µM

**Q.** And the TGI [26]?
**A.** > 100 µM

**Q.** What about the TGI [27] of the same molecule?
**A.** > 100 µM

**Q.** And the TGI [28]?
**A.** 34.7 µM

**Q.** What about the TGI [29] of the same molecule?
**A.** > 100 µM

**Q.** What about the TGI [30] of the same molecule?
**A.** 14.5 µM

**Q.** And the TGI [31]?
**A.** 30.6 µM

**Q.** And the TGI [32]?
**A.** 21.6 µM

**Q.** And the TGI [33]?
**A.** 11.8 µM

**Q.** And the TGI [34]?
**A.** 34.2 µM

**Q.** And the TGI [35]?
**A.** 18.8 µM

**Q.** And the TGI [36]?
**A.** 26.7 µM

**Q.** And the TGI [37]?
**A.** > 100 µM

**Q.** What about the TGI [38] of the same molecule?
**A.** 36.9 µM

**Q.** What about the TGI [39] of the same molecule?
**A.** 46.9 µM

**Q.** What about the TGI [40] of the same molecule?
**A.** > 100 µM

**Q.** What about the TGI [41] of the same molecule?
**A.** > 100 µM

**Q.** And the TGI [42]?
**A.** 38.7 µM

**Q.** What about the TGI [43] of the same molecule?
**A.** 17.8 µM

**Q.** And the TGI [44]?
**A.** 26.2 µM

**Q.** What about the TGI [45] of the same molecule?
**A.** 21.7 µM

**Q.** And the TGI [46]?
**A.** 31.1 µM

**Q.** What does the source list for CCCOc1c2cc(COC3OC(CO)C(O)C(O)C3O)cc1Cc1cc(COC3OC(CO)C(O)C(O)C3O)cc(c1OCCC)Cc1cc(COC3OC(CO)C(O)C(O)C3O)cc(c1OCCC)Cc1cc(COC3OC(CO)C(O)C(O)C3O)cc(c1OCCC)C2 (stereo unspecified)?
**A.** GI50 [1]: > 100 µM and 28.1 µM; TGI [1]: > 100 µM and 89.8 µM; GI50 [2]: 88.4 µM and > 100 µM and 16.3 µM; TGI [2]: > 100 µM and 42.5 µM; GI50 [3]: 49.5 µM and > 100 µM and 26.9 µM; TGI [3]: > 100 µM and 94.4 µM; GI50 [4]: > 100 µM and 23.9 µM; TGI [4]: > 100 µM and 63.4 µM; GI50 [47]: > 100 µM and 72.8 µM and 21.8 µM; TGI [47]: > 100 µM and 36.4 µM; GI50 [5]: > 100 µM and 25 µM; TGI [5]: > 100 µM and 64.8 µM; GI50 [48]: 7.52 µM and 17.6 µM; TGI [48]: > 100 µM and 36.5 µM; GI50 [6]: 38.9 µM and 35.9 µM and 13.1 µM; TGI [6]: > 100 µM and 26.1 µM; GI50 [49]: > 100 µM and 35.1 µM; TGI [49]: > 100 µM; GI50 [9]: > 100 µM and 35.5 µM; TGI [9]: > 100 µM; TGI [10]: > 100 µM; GI50 [11]: 48.6 µM and > 100 µM and 16.7 µM; TGI [11]: > 100 µM and 32.2 µM; GI50 [12]: > 100 µM and 42.1 µM; TGI [12]: > 100 µM; GI50 [50]: 27.8 µM and 78 µM and 7.86 µM; TGI [50]: 77.7 µM and > 100 µM and 21.6 µM; GI50 [13]: > 100 µM and 29.2 µM; TGI [13]: > 100 µM and 93.7 µM; TGI [14]: > 100 µM; TGI [51]: > 100 µM; GI50 [15]: > 100 µM and 89.8 µM and 32.6 µM; TGI [15]: > 100 µM; GI50 [16]: 60.2 µM and > 100 µM and 15.9 µM; TGI [16]: > 100 µM and 40.8 µM; GI50 [52]: 36.7 µM and 62.2 µM and 15.8 µM; TGI [52]: > 100 µM and 32.5 µM; GI50 [17]: 75.4 µM and > 100 µM and 19.3 µM; TGI [17]: > 100 µM and 39.2 µM; GI50 [18]: > 100 µM and 58.6 µM and 17.6 µM; TGI [18]: > 100 µM and 31.4 µM; GI50 [19]: 61.1 µM and 56.1 µM and 16.2 µM; TGI [19]: > 100 µM and 32.4 µM; TGI [21]: > 100 µM; GI50 [53]: 53.7 µM and > 100 µM and 19.4 µM; TGI [53]: > 100 µM and 44.3 µM; GI50 [54]: 45.2 µM and > 100 µM and 17 µM; TGI [54]: > 100 µM and 34.1 µM; GI50 [55]: 57.2 µM and > 100 µM and 20.6 µM; TGI [55]: > 100 µM and 41.1 µM; GI50 [56]: > 100 µM and 18.4 µM; TGI [56]: > 100 µM and 34.8 µM; TGI [57]: 29 µM; GI50 [22]: 59.2 µM and > 100 µM and 17.7 µM; TGI [22]: > 100 µM and 40.1 µM; GI50 [23]: 69.6 µM and 71 µM and 21.2 µM; TGI [23]: > 100 µM and 52.8 µM; GI50 [24]: 56.9 µM and > 100 µM and 30.3 µM; TGI [24]: > 100 µM and 92.3 µM; GI50 [25]: 32.4 µM and 72.8 µM and 13.7 µM; TGI [25]: > 100 µM and 26.6 µM; TGI [58]: > 100 µM; GI50 [26]: 53.2 µM and > 100 µM and 19.3 µM; TGI [26]: > 100 µM and 51.7 µM; TGI [27]: > 100 µM and 76.6 µM; GI50 [28]: 41.8 µM and > 100 µM and 22 µM; TGI [28]: > 100 µM and 55.2 µM; GI50 [59]: > 100 µM and 18.4 µM; TGI [59]: > 100 µM and 42.6 µM; GI50 [60]: > 100 µM and 17.2 µM; TGI [60]: > 100 µM and 46.2 µM; TGI [29]: > 100 µM; GI50 [30]: 14.2 µM and 23.9 µM; TGI [30]: 33.9 µM and 87 µM and 77.4 µM; GI50 [31]: > 100 µM and 80.4 µM and 17.5 µM; TGI [31]: > 100 µM and 33.3 µM; GI50 [32]: 67.5 µM and 84.6 µM and 17.4 µM; TGI [32]: > 100 µM and 35.7 µM; GI50 [33]: > 100 µM and 25 µM; TGI [33]: > 100 µM and 79.8 µM; GI50 [34]: 57 µM and 96.4 µM and 15.7 µM; TGI [34]: > 100 µM and 35.6 µM; GI50 [35]: > 100 µM and 14.5 µM; TGI [35]: > 100 µM and 29 µM; GI50 [36]: 96.7 µM and > 100 µM and 17.1 µM; TGI [36]: > 100 µM and 32.7 µM; GI50 [37]: > 100 µM and 34.9 µM; TGI [37]: > 100 µM; GI50 [38]: 96.6 µM and > 100 µM and 18.5 µM; TGI [38]: > 100 µM and 43.5 µM; GI50 [39]: 66.1 µM and > 100 µM and 17.5 µM; TGI [39]: > 100 µM and 32.1 µM; GI50 [61]: 18.5 µM and 55.4 µM and 22.2 µM; TGI [61]: 93.7 µM and > 100 µM and 62.8 µM; GI50 [41]: 29.9 µM and 13.8 µM; TGI [41]: 48.9 µM and 29.5 µM; GI50 [42]: 99.9 µM and > 100 µM and 15.6 µM; TGI [42]: > 100 µM and 36.2 µM; GI50 [62]: 34.3 µM and 69.9 µM and 29 µM; TGI [62]: > 100 µM; GI50 [63]: > 100 µM and 46.8 µM; TGI [63]: > 100 µM; GI50 [43]: 49.3 µM and 48.5 µM and 16.6 µM; TGI [43]: > 100 µM and 31.6 µM; GI50 [44]: 67.1 µM and > 100 µM and 33.6 µM; TGI [44]: > 100 µM; GI50 [45]: 90.7 µM and > 100 µM and 16 µM; TGI [45]: > 100 µM and 35 µM; GI50 [46]: > 100 µM and 28.8 µM; TGI [46]: > 100 µM
